Experimental findings from the Deep4Chem optical property database are described below.

A short description of this series: solvent given as SMILES.
[1] abbreviates: in O=P(c1ccccc1)(c1ccccc1)c1ccccc1Oc1ccccc1P(=O)(c1ccccc1)c1ccccc1.

“And” between values parts separate entries of the source, which are not always exact repeats. Identical values can stand only once.

For the compound `COc1ccc(/C=C/C2=[O+][B-](F)(F)OC(/C=C/c3ccc(OC)cc3)=C2c2cccc(OC)c2)cc1`, the emission maximum (in ClCCl) came to 556 nm.
For `c1ccc2c(c1)c1ccccc1n2-c1ccc(-c2nnc(-c3ccc(-n4c5ccccc5c5ccccc54)cc3)o2)cc1`, the emission maximum runs as follows: (in Cc1ccccc1) 386 nm; under setting [1], 414 nm.
Consider `CC(C)(C)c1ccc(C2=C(Br)C3=C(c4ccccc4)c4c(Br)c(-c5ccc(C(C)(C)C)cc5)c(-c5ccc(C(C)(C)C)cc5)n4[B-](F)(F)[N+]3=C2c2ccc(C(C)(C)C)cc2)cc1`, for which the emission maximum is on record as 614 nm (in C1CCCCC1); 617 nm (in C1CCOC1); 613 nm (in CC#N); 618 nm (in Cc1ccccc1); 619 nm (in ClCCl).
For the compound `CC(C)(C)c1ccc(-c2c(-c3cccc(-n4c5ccccc5c5ccccc54)c3)c(C#N)c(-c3cccc(-n4c5ccccc5c5ccccc54)c3)c(-c3ccc(C(C)(C)C)cc3)c2-c2ccc(C(C)(C)C)cc2)cc1`, the emission maximum (in C1CCOC1) turned out to be 412 nm.
The compound `Clc1ccc(/C=C/c2ccncn2)cc1` returned an emission maximum (in ClCCl) of 411 nm.
For the setting “in ClCCl”, `F[B-]1(F)n2c(Oc3ccccc3)c(Cl)c(Br)c2C(Oc2ccccc2)=C2C(Br)=C(Cl)C(Oc3ccccc3)=[N+]21` yielded an emission maximum of 544 nm.
Turning to `O=C1c2ccc(N(c3ccccc3)c3ccccc3)cc2C(=O)c2ccc(N(c3ccccc3)c3ccccc3)cc21`, the emission maximum is reported as 601 nm (in Cc1ccccc1) and 593 nm (in c1ccc2c(c1)c1ccccc1n2-c1ccc(-c2ccc(-n3c4ccccc4c4ccccc43)cc2)cc1).
The compound `c1ccc(N(c2ccccc2)c2ccc(-n3ccc4cc(-c5ccc6c(c5)C(c5ccccc5)(c5ccccc5)c5ccccc5-6)ccc43)cc2)cc1` came in with an emission maximum (in ClCCl) of 380 nm.
`FC(F)(F)C(F)(F)C(F)(F)c1nc2c(-c3ccsc3)cc3c4cc(-c5ccsc5)c5nc(C(F)(F)C(F)(F)C(F)(F)F)nc6c(-c7ccsc7)cc(c7cc(-c8ccsc8)c(n1)c2c37)c4c56` displayed an emission maximum (in C1CCOC1) of 574 nm.
In the case of `COc1cc(C2=CC3=C(c4c(C)cc(C)cc4C)c4cc(-c5cc(OC)c(OC)c(OC)c5)c(-c5cc(OC)c(OC)c(OC)c5)n4[B-](F)(F)[N+]3=C2c2cc(OC)c(OC)c(OC)c2)cc(OC)c1OC`, the emission maximum reads like this: (in C1CCCCC1) 670 nm; (in C1CCOC1) 662 nm; (in CC#N) 628 nm; (in Cc1ccccc1) 677 nm; (in ClCCl) 651 nm.
As for `CN(C)c1ccc(/C=C/C=C/c2ccc([N+](=O)[O-])c(O)c2)cc1`, the emission maximum runs as follows: (in C1CCCCC1) 530 nm; (in C1CCOC1) 686 nm; (in C1COCCO1) 634 nm; (in CCCCCCC) 523 nm; (in Cc1ccccc1) 609 nm.
On to `CCCCn1c(-c2ccc(-c3ccc(-c4ccc(-c5n(CCCC)c6ccccc6[n+]5CCCC)cc4)cc3)cc2)[n+](CCCC)c2ccccc21`, for which, under “in O”, the emission maximum worked out at 397 nm.
For `c1ccc(-c2nc(-c3ccc(-c4ccc(-c5ccc(-c6nc(-c7ccccc7)c(-c7ccccc7)o6)cc5)cc4)cc3)oc2-c2ccccc2)cc1`, the emission maximum (in C1COCCO1) is 426 nm.
For `CCCCCCOc1cc(N(CC)CC)ccc1/C=C(\C#N)c1ccc(/C=C/C(=C(C#N)C#N)c2ccc(N(c3ccccc3)c3ccccc3)cc2)s1`, the emission maximum (in ClCCl) is recorded as 750 nm.
Regarding `O=[N+]([O-])c1ccc(NCCN(Cc2c3ccccc3cc3ccccc23)c2ccc([N+](=O)[O-])cc2[N+](=O)[O-])c([N+](=O)[O-])c1`, the emission maximum was determined as 419 nm (in C1CCCCC1); 416 nm (in C1CCOC1); 389 nm (in CC#N); 388 nm (in CC(C)=O); 388 nm (in CCO); 409 nm (in CN(C)C=O). For the same compound, the emission maximum reads like this: (in CO) 389 nm; (in ClC(Cl)Cl) 417 nm.
Turning to `CC(C)(C)c1ccc2c(c1)c1cc(C(C)(C)C)ccc1n2-c1ccc(N(c2ccc(-c3ccc(-c4ccc(-c5ccc(N(c6ccc(-n7c8ccc(C(C)(C)C)cc8c8cc(C(C)(C)C)ccc87)cc6)c6ccc(-n7c8ccc(C(C)(C)C)cc8c8cc(C(C)(C)C)ccc87)cc6)cc5)s4)s3)cc2)c2ccc(-n3c4ccc(C(C)(C)C)cc4c4cc(C(C)(C)C)ccc43)cc2)cc1`, the emission maximum (in ClCCl) was found to be 494 nm.
In the case of `O=C(O)c1ccc2cc3cc(C(=O)O)ccc3cc2c1`, the emission maximum by setting is: (in C1CCOC1) 419 nm; (in CN(C)C=O) 423 nm.
As to `COc1cc(OC)c2ccc(=O)oc2c1`, the emission maximum is on record as 417 nm (in CC(C)O); 425 nm (in CCO); 390 nm (in CCOCC); 432 nm (in CO); 450 nm (in O).
Turning to `c1ccc2c(c1)ccc1ccc3ccc4ccc5ccccc5c4c3c12`, for the setting “in ClCCl”, the emission maximum was determined as 476 nm.
Turning to `O=S1(=O)c2ccccc2-c2c1c1ccccc1p2-c1ccccc1` (centres undefined), the emission maximum (in C1CCCCC1) is on record as 436 nm, the emission maximum (in CC#N) is reported as 453 nm, the emission maximum (in CCO) was 464 nm and the emission maximum (in ClCCl) is listed as 453 nm.
Consider `N#Cc1ccc(-c2nc(-c3ccccc3)c3ccccn23)cc1`, for which the emission maximum by setting is: (in C1CCCCC1) 444 nm; (in CC#N) 453 nm; (in CO) 487 nm; (in ClCCl) 477 nm; (in O) 470 nm.
For `COc1ccccc1C1=[N+]2C(=C(c3ccc(I)cc3)c3ccc(-c4ccccc4OC)n3[B-]2(F)F)C=C1`, the emission maximum (in ClC(Cl)Cl) is 598 nm and 597 nm.
For `CN(C)c1ccc(-c2ccc(C#N)s2)s1`, where the note is “in CCO”, the emission maximum came out at 510 nm.
Turning to `Fc1ccc2cc3cccc[n+]3cc2c1`, the emission maximum (in O) amounted to 408 nm.
In turn, `CCC1(CC)c2ccccc2-c2c1c1c(c3c2C(CC)(CC)c2cc(/C=C/c4cccs4)ccc2-3)C(CC)(CC)c2ccccc2-1` displayed an emission maximum (in C1CCOC1) of 395 nm.
Regarding `COc1ccc(/C=C/c2cc(/C=C/c3ccc(OC)cc3)nc(/C=C/c3ccc(N(c4ccccc4)c4ccccc4)cc3)n2)cc1`, the emission maximum stood at 511 nm (in C1CCOC1); 627 nm (in CC#N); 572 nm (in CC(C)=O); 439 nm (in CCCCCCC); 622 nm (in CS(C)=O); 466 nm (in Cc1ccccc1). The emission maximum (in ClCCl) is on record as 558 nm.
Take `COc1ccc(N(c2ccc(OC)cc2)c2ccc(-c3ccc4nc5ccccc5c(=O)n4c3)cc2)cc1`: under “in ClCCl”, the emission maximum is reported as 538 nm.
The compound `COC(=O)c1ccc(/C=C2\C=C(c3ccc([N+](=O)[O-])cc3)OC2=O)cc1` gave an emission maximum (in C1COCCO1) of 493 nm.
Turning to `N#Cc1c(-c2ccc(N(c3ccccc3)c3ccccc3)cc2)c(C#N)c(-c2ccc(N(c3ccccc3)c3ccccc3)cc2)c(C#N)c1-c1ccc(N(c2ccccc2)c2ccccc2)cc1`, the emission maximum under setting [1] was 533 nm.
With `Cc1ccc(C2C(C#N)=C(N)n3c(=O)c4ccccc4c(=O)n32)cc1` (centres undefined), the emission maximum (in CS(C)=O) is given as 450 nm.
With `Cc1nc2cccc(-c3nc4ccccc4s3)c2c(=O)[nH]1`, the emission maximum (in CN(C)C=O) came out at 416 nm.
With `COC1=C/C(=C\C=C2C=CN(Cc3ccc(Br)cc3)C=C2)C=CC1=O`, the emission maximum by setting is: (in CC#N) 665 nm; (in CC(C)=O) 670 nm; (in CC(C)CO) 642 nm; (in CC(C)O) 641 nm; (in CCC#N) 665 nm; (in CCCCCCO) 645 nm. Further, the emission maximum is 643 nm (in CCCCCO); 640 nm (in CCCCO); 639 nm (in CCCO); 638 nm (in CCO); 682 nm (in CN(C)C=O); 670 nm (in CN(C)P(=O)(N(C)C)N(C)C). The emission maximum reads like this: (in CO) 636 nm; (in CS(C)=O) 669 nm.
Turning to `CCN1C(=O)C(C2C(=O)c3c4ccccc4cc4cc5ccccc5c2c34)C(=O)N(CC)C1=S` (centres undefined), the emission maximum reads like this: (in C1CCOC1) 571 nm; (in CCCCCC) 544 nm; (in Cc1ccccc1) 564 nm; (in ClCCl) 582 nm.
Consider `CC1=CC(C)=[N+]2C1=C(c1ccccc1)c1c(C)cc(/C=C/c3ccc(N(C)C)cc3)n1[B-]2(F)F`, for which the emission maximum (in CCOCC) was 638 nm.
`Cc1cc(=O)oc2ccc3ccc(-c4cn(Cc5ccccc5)nn4)cc3c12` registered an emission maximum (in CCO) of 420 nm.
For `O=C1c2ccccc2NC(c2ccccc2)N1Cc1ccccc1` (centres undefined), the emission maximum runs as follows: (in CC#N) 407 nm; (in CCCCCCCCCCCCCCCC) 383 nm; (in CO) 442 nm; (in ClC(Cl)Cl) 398 nm; (in c1ccccc1) 393 nm.
In the case of `Nc1ncnc2c1c(-c1ccc3ccccc3c1)nn2[C@H]1C[C@H](O)[C@@H](CO)O1`, the emission maximum (in C1COCCO1) was 359 nm; the emission maximum (in CC#N) stood at 360 nm; the emission maximum (in CC(C)O) is 363 nm; the emission maximum (in CCO) is given as 364 nm; the emission maximum (in CCOC(C)=O) is 358 nm; the emission maximum (in CN(C)C=O) came to 361 nm. Moreover, the emission maximum was 362 nm (in CO), 363 nm (in CS(C)=O), 372 nm (in OCC(O)CO) and 365 nm (in OCCO).
`CC(=O)Nc1ccc2ccc3cccc4ccc1c2c34`: the emission maximum amounted to 386 nm (in CC#N), 385 nm (in CCCCOCCCC) and 383 nm (in CO).
Turning to `CCCCCCCN1C(=CC2=C([O-])C(=CC3=[N+](CCCCCCC)c4ccccc4C3(C)C)C2=C(C#N)C#N)Sc2ccccc21`, the emission maximum (in C1COCCO1) is 709 nm, the emission maximum (in CCO) is 699 nm, the emission maximum (in CN(C)C=O) was 702 nm and the emission maximum (in ClC(Cl)Cl) turned out to be 709 nm.
The compound `Nc1ccc2c(c1)oc(=O)c1c(=O)oc3ccccc3c12` showed an emission maximum (in CS(C)=O) of 534 nm and an emission maximum (in ClCCl) of 498 nm.
